Patent US20240002379A1, “ASYMMETRIC CONJUGATE COMPOUNDS” (Pheon Therapeutics Ltd., priority 2016, published 2024)
“Also recorded” adds a separate entry of the source. Read-outs that look alike come from different tables or passages of the source.

Assays:
[1] = test system: three fluorescently labelled DNA sequences shown in FIG. 17; assay: FRET DNA melting, the three DNA sequences shown in FIG. 17 together; type: binding; settings: different concentrations, all three sequences, vs control DNA
From the text: Further FRET DNA melting studies were undertaken on a number of molecules using three fluorescently labelled sequences. The sequences (FIG. 17) were designed to provide additional evidence that the series can form inter- and intrastrand cross-links. Inosines were inserted in place of traditional DNA bases in some cases to limit the number of binding sites available for the compounds to interact with. The short duplexes used in this FRET study are relatively unstable in the duplex form with a melting temperature below 30° C. so that, in the absence of ligand, a large part of the melting occurs below the starting temperature of the experiment. […] Increasing concentrations of 13 cause a greater amount of the melting transition to appear at the higher temperature (i.e. a greater number of the DNA molecules are cross-linked). A greater effect for 5′-AIIAGAITTTI′-3′ can be observed at lower concentrations of 13.
Oligonucleotides were obtained from ATDbio (Southampton, UK) in lyophilised form. They were labelled with a fluorophore molecule (F=fluorescein) at the 5′-end and a quencher molecule (Q=dabcyl) at the 3′-end of the complementary strand. Each oligonucleotide was dissolved in distilled H2O to form stock solutions of 100 PM. Working solutions of 5 μM were prepared by diluting the stock solution with distilled H2O.
The following buffers were used: 250 mM phosphate buffer pH 7.4 (consisting of sodium dihydrogen phosphate and sodium phosphate diluted in distilled H2O) and 5 M sodium chloride buffer. A11 buffers and distilled H2O were filtered through a […] filter prior to use.
For the FRET experiments a stock solutions were prepared by dissolving compound (such as compound 13) in DMSO to give a concentration of 10 mM. From this stock solution, working solutions of the desired concentration were prepared by diluting the stock solution with distilled H2O.
The reaction mixture was comprised of 4 μL of 250 mM phosphate buffer (final concentration of 50 mM), 4 μL flourophor and 4 μL quencher molecule of the appropriate oligonucleotide for a final concentration of 0.2 PM, 4 μL 5 M sodium chloride (final concentration of 1 M NaCl), and 4 μL of distilled H2O. This mixture was heated in an Eppendorf tube at 90° C. for 1 min and slowly cooled down to room temperature. This process was carried out to anneal the single strands to double-stranded DNA. Following this, 4 μL of the ligand was added in the desired concentration and the mixture incubated overnight either at room temperature or 4° C. A control sample of DNA only was prepared by mixing 4 μL 250 mM phosphate buffer (final concentration of 50 mM) with 4 μL fluorophore-labelled and 4 μL quencher-labelled oligonucleotides (of the appropriate sequence) to give a final concentration of 0.2 PM, 4 μL 5 M sodium chloride (final concentration of 1 M NaCl) and 4 μL distilled H2O. This mixture was analysed without prior annealing.
Fluorescence melting profiles were measured using a Roche LightCycler using a total reaction volume of 20 μL. Initially, the samples were denatured by heating to 95° C. at a rate of 1° C. min^−1. The samples were then maintained at 95° C. for 5 min before annealing by cooling to 25° C. at 1° C. min^−1. The samples were then held at 25° C. for a further 5 min and finally melted by heating to 95° C. at 1° C. min^−1. Annealing steps and melting steps were all recorded and changes in fluorescence were measured at 520 nm.
Tm values were obtained from the first derivates of the melting profiles using the Roche LightCycler software.

[2] = test system: linear double-stranded HexARev DNA fragment; assay: DNA cleavage assay, HexARev fragment; type: biochemical; settings: ligand concentration 10 μM and 100 nM (FIG. 16)
Method: The ability of a further series of compounds 13, 42, 59, 99 and the PBD dimer Talirine to cross-link DNA was determined using an assay involving a linear double-stranded HexARev fragment (FIG. 15).
The ability of 13 and of a series of compounds to cleave double-stranded DNA was investigated using a modification of the previously established DNA footprinting assay (34). Following an overnight incubation of the ligand-DNA complexes, the mixture was mixed with strand separation buffer containing 10 mM EDTA, 10 mM NaOH, 0.1% bromophenol blue, 80% formamide and incubated at 100° C. for 3 min. The mixture was then immediately cooled on ice and run on an 8% denaturing gel. […] Using the GA marker, these additional bands were identified as cleavage products produced by 13 at certain A sites of the DNA fragment.
The preparation of the TyrT DNA fragment (FIG. 8) and HexARev DNA fragment (FIG. 15) have been previously described (34). Briefly, the sequence which had been cloned into the BamHI site of pUC18 was obtained by cutting with HindIII and EcoRI. Radiolabelled DNA fragments were prepared by filling in the 3′-end of the HindIII site with [α-^32P]dATP using Klenow DNA polymerase (exo-).
The radiolabelled DNA fragment was separated from the remainder of the plasmid DNA on a 6% non-denaturing polyacrylamide gel. The gel (20 cm long, 0.3 mm thick) was run at 400 V in 1×TBE running buffer for about 1-2 h, until the bromophenol blue had run most of the way down the gel. The glass plates were separated and the position of the labelled DNA fragment was established by short (1 min) exposure to an X-ray film. The relevant band was then cut from the gel and the radiolabelled DNA eluted by adding 300 μL 10 mM Tris-HCl, pH 7.5 containing 0.1 mM EDTA and gently agitating overnight at room temperature. The eluted DNA was finally precipitated with ethanol and re-suspended in a suitable volume of 10 mM Tris-HCl, pH 7.5 containing 0.1 mM EDTA buffer so as to give at least 10 counts per second/μL on a hand-held Geiger counter. With fresh plasmid and α-^32P-dATP this process typically generated about 150 μL of radiolabelled fragment DNA. The absolute concentration of the DNA is not important, and it is typically lower than 10 nM.
Compounds such as 13 were synthesised as described above and the PBD dimer Talirine was obtained from Aurum Pharmatech LLC. Stock solution was prepared by dissolving the ligands in DMSO to give a concentration of 10 mM. From this stock solution, working solutions of the desired concentration were prepared by diluting with 10 mM Tris-HCl, pH 7.5 containing 10 mM NaCl.
Radiolabelled DNA (1.5 μL) was mixed with 1.5 μL ligand solution of various concentrations (10 μM-10 nM) and incubated overnight at 37° C.
Labelled DNA (1.5 μL) was mixed with 20 μL sterile water and 5 μL of denaturing loading solution (80% formamide containing 10 mM EDTA, 10 mM NaOH, 0.01% bromophenol blue). The sample was then incubated at 100° C. for 20 min with the micro-centrifuge tube cap open to allow evaporation.
Loading solution (4.5 μL) was added to samples from Section 2.1. The digestion products were boiled for 3 min at 100° C. and quickly cooled on ice prior to electrophoresis. Separation was performed on an 8% denaturing polyacrylamide gel (40 cm long, 0.3 mm thick) at 1500V for about 2 h until the dye reached the bottom of the gel. […]

[3] = test system: PC3 (prostate) cell line; assay: MTT cytotoxicity assay, PC3; type: cell-based; settings: 72 h, read-out: Cytotoxicity PC3 (nM, 72 hour)
Method: (§1) Tumor cell lines were maintained in RPMI1640 medium supplemented with 10% heat-inactivated fetal bovine serum, 2 mM L-glutamine and 1 mM sodium pyruvate. 1800 cells per well were seeded in a volume of 180 μl in a 96-well flat bottom polystyrene plate. The cells were allowed to adhere overnight at 37° C. in a CO2 incubator. Ligands were initially formulated in DMSO, and stocks stored at −80° C. They were then further formulated at lox concentration in RPMI1640 medium. 20 ul of diluted samples were added into each treatment well. On each plate, blank wells with no cells, and untreated wells containing cells, were included. Plates were then cultured at 37° C. in a CO2 incubator for 72 hrs. Cytotoxicity was evaluated using a tetrazolium salt-based assay, the MTT assay. After 72 hours, the supernatant was removed from each well and 200 μl of a sterile filtered 500 μg/ml MTT solution in water added to each well. The plates were then incubated at 37° C. in a CO2 incubator for 4 hrs. The supernatant was then removed and the formazan crystals formed solubilized by adding 150 μl of DMSO to each well. The plate was then read on a plate reader at 540 nm, and percentage cell survival calculated as follows: ((mean absorbance treated wells at concentration x−mean absorbance blank wells)[…](mean absorbance untreated wells at concentration x−mean absorbance blank wells))×100. Data were plotted as concentration in nM vs. % cell survival in Microsoft Excel, and IC50 values (concentration where cell survival is reduced by a half) were determined from the graph.

[4] = test system: FaDu (head and neck cancer) cell line; assay: MTT cytotoxicity assay, FaDu; type: cell-based; settings: Homo sapiens, 72 h, read-out: IC50 value in FaDu (prodrug form)
Method: as §1

[5] = test system: SW620 cell line (gastric); assay: MTT cytotoxicity assay, SW620; type: cell-based; settings: Homo sapiens, SW-620; MTT assay, 72 hour incubation; read-out: Cytotoxicity SW620 (72 hours)
Method: as §1

[6] = test system: SW48 cell line (gastric); assay: MTT cytotoxicity assay, SW48; type: cell-based; settings: Homo sapiens, SW48; MTT assay, 72 hour incubation; read-out: Cytotoxicity SW48 (72 hrs)
Method: as §1

[7] = test system: LIM1215 cell line (gastric); assay: MTT cytotoxicity assay, LIM1215; type: cell-based; settings: read-out: Cytotoxicity LIM1215 (72 hours)
Method: as §1

[8] = test system: SW620 cell line; assay: MTT cytotoxicity assay, SW620; type: cell-based; settings: MTT assay, 72 hour incubation
Method: as §1

[9] = test system: SW48 cell line; assay: MTT cytotoxicity assay, SW48; type: cell-based; settings: MTT assay, 72 hour incubation
Method: as §1

[10] = test system: LIM1215 cell line; assay: MTT cytotoxicity assay, LIM1215; type: cell-based; settings: MTT assay, 72 hour incubation
Method: as §1

## COc1cc2c(cc1OCc1cccc(CC(=O)N3C[C@@H](CCl)c4c3cc(OC(=O)N3CCN(C)CC3)c3ccccc43)c1)N=C[C@@H]1CCCCN1C2=O [Compound 59, (S)-1-(Chloromethyl)-3-(2-(3-((((S)-2-methoxy-12-oxo-6a,7,8,9,10,12-hexahydrobenzo[e]pyrido[1,2-a][1,4]diazepin-3-yl)oxy)-methyl)phenyl)acetyl)-2,3-dihydro-1H-benzo[e]indol-5-yl 4-methyl-piperazine-1-carboxylate]
[1]
  effect on melting temperature / DNA stabilisation: does not impact on the stabilisation temperature of the parent DNA; also recorded: does not increase in proportion to the concentration
[2]
  cleavage of HexARev DNA fragment: limited cleavage
[3]
  IC50: 900 nM
[4]
  IC50: 4500 nM

## O=C(O)c1cc(OCc2ccccc2)c2ccccc2c1 [Compound 77, 4-(Benzyloxy)-2-naphthoic acid]
[2]
  cleavage of HexARev DNA fragment: distinct cleavage patterns

## COc1cc2c(cc1OCCCCCC(=O)N1C[C@@H](CCl)c3c1cc(O)c1ccccc31)N=C[C@@H]1CCCCN1C2=O [Compound 99, (S)-3-((6-((S)-1-(Chloromethyl)-5-hydroxy-1,2-dihydro-3H-benzo[e]indol-3-Y1)-6-oxohexyl)oxyl)-2-methoxy-7,8,9,10-tetrahydrobenzo-[e]pyrido[1,2-a][1,4]diazepin-12(6aH)-one]
[5]
  IC50: 0.045 nM
[2]
  cleavage of HexARev DNA fragment: cleave DNA
[6]
  IC50: 0.035 nM
[7]; LIM1215, MTT assay, 72 hour incubation
  IC50: 0.039 nM

## COc1cc2c(cc1OCc1cccc(CC(=O)N3C[C@@H](CCl)c4c3cc(OC(=O)N3CCN(C)CC3)c3ccccc43)c1)NC(=O)[C@@H]1CCCCN1C2=O [Compound 140]
[8]
  Cytotoxicity SW620 (72 hours): Not active
[9]
  Cytotoxicity SW48 (72 hrs): Not active
[7]; LIM1215, 72 h
  IC50: 18.1 nM

## COc1cc2c(cc1OCc1cccc(CC(=O)N3C[C@@H](C)c4c3cc(O)c3ccccc43)c1)NC(=O)[C@@H]1CCCCN1C2=O [Compound 143, (S)-3-((3-(2-((S)-5-Hydroxy-1-methyl-1,2-dihydro-3H-benzo[e]indol-3-yl)-2-oxoethyl)benzyl)oxy)-2-methoxy-7,8,9,10-tetrahydrobenzo[e]pyrido[1,2-a][1,4]diazepine-6,12(5H,6aH)-dione]
[8]
  Cytotoxicity SW620 (72 hours): Not active
[9]
  Cytotoxicity SW48 (72 hrs): Not active
[10]
  Cytotoxicity LIM1215 (72 hours): Not active
